Source: PMC3493696 (Life sciences, 2012)
Where two headings read alike, the source gives them in different places.

Columns and labels:
[1] = rodents, doses of 0.1–100 mg/kg; ref Valenzano et al. 2005; cited from earlier work
[2] = ref Beltramo 2009, cited from earlier work
[3] = 1.0 mg/kg i.v.; ref Dhawan et al. 2006; Petitet et al. 1999; cited from earlier work
CB2 [4] = biological target: T1, CB2 (Homo sapiens, UniProt P34972); test: Preliminary experiments: CB2 agonist potency of metabolite; conditions: data not shown
T1 sequence (P34972 whole entry, species assumed): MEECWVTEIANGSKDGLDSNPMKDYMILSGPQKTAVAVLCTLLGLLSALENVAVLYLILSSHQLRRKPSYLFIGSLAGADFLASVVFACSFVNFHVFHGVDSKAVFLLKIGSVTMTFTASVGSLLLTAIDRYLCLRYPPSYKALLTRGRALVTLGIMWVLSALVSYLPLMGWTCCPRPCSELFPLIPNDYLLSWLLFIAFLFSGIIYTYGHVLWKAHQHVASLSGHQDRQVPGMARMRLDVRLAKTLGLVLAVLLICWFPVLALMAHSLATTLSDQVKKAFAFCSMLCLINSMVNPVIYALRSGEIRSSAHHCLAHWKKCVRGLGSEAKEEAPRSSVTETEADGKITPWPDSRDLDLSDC

[5] = Plasma pharmacokinetics in mice after i.v. or p.o. AM-1241*HCl; format: in vivo, mouse
[6] = Tissue distribution of AM-1241 in mice after i.v. or p.o. administration; format: in vivo, mouse; conditions: 25 mg/kg; for time by which concentration became undetectable: i.v.
plasma proteins = test: Plasma-protein binding in undiluted mouse plasma; format: in vitro ADME; conditions: up to 50 µM, 30 minute incubation at 37°C, triplicate
human serum albumin = human serum albumin (Homo sapiens, UniProt P02768); test: Binding to aqueous human serum albumin; format: in vitro ADME; conditions: 50 µM
Chain of human serum albumin (P02768 25-609): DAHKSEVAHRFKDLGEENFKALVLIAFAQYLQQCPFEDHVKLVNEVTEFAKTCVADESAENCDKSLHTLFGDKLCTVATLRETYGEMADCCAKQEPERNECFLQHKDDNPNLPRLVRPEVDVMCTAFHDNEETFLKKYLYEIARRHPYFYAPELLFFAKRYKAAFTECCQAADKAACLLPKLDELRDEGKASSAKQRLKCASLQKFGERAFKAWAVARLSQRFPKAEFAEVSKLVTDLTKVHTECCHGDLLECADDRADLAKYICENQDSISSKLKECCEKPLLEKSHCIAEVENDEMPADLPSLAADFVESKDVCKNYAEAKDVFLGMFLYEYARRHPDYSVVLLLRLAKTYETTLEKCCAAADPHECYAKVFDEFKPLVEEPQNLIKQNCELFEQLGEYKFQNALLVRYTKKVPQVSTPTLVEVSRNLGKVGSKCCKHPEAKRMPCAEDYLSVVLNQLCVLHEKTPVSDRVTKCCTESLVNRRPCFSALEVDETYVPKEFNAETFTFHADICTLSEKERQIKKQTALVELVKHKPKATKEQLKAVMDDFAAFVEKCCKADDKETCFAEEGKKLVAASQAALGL

[7] = Stability in mouse plasma at 37°C; format: in vitro ADME; conditions: at least 6 hours, 20 µM
[8] = Solution stability in acetonitrile at 37°C; format: physicochemical; conditions: at least 24 hours, 20 µM
[9] = Thermal stability of aqueous AM-1241*HCl solutions; format: physicochemical; conditions: 0.003, 0.03, 0.3 and 1 mg/mL, up to 14 days
[10] = Microsomal metabolism and LC-MS/MS metabolite analysis, rat liver microsomes; format: in vitro ADME; conditions: 100 µM, 30 minutes, 37°C, NADPH
[11] = Microsomal metabolism and LC-MS/MS metabolite analysis, human liver microsomes; format: in vitro ADME; conditions: 100 µM, 30 minutes, 37°C, NADPH
mice = test: Responses of mice to AM-1241 administration; format: in vivo, mouse
CB2 vs. CB1 = conditions: ref Beltramo 2009; Bingham et al. 2007; Mancini et al. 2009; Nackley et al. 2003; Quartilho et al. 2003; Yao et al. 2006; cited from earlier work
CB2 [12] = biological target: T1, CB2; conditions: ref Beltramo 2009; Bingham et al. 2007; Mancini et al. 2009; Nackley et al. 2003; Quartilho et al. 2003; Yao et al. 2006; cited from earlier work
[13] = local (intraplantar) administration; ref Malan et al. 2001; cited from earlier work
[14] = i.p., murine model; ref Storr et al. 2009; cited from earlier work
[15] = ref Giblin et al. 2007; cited from earlier work

Structure (SMILES): COc1ccc2c(c1)c(CCN1CCOCC1)c(C)n2C(=O)c1cccc(Cl)c1Cl [GW405833, reference compound]
- oral bioavailability [1]: 0%
- dose of maximal effective antihyperalgesic and analgesic activities ([2]; i.p.): 1 to 3 mg/kg

Structure (SMILES): CN1CCCCC1Cn1cc(C(=O)c2ccccc2I)c2ccccc21 (stereo not shown) [AM-2233]
- catalepsy [3]: profound catalepsy

Structure (SMILES): O=C(c1cc([N+](=O)[O-])ccc1I)c1cn(CC2CCCCN2)c2ccccc12 (stereo not shown) [demethylated metabolite of AM-1241]
- CB2 agonist potency compared to the parent compound (CB2 [4]): somewhat less potent

Structure (SMILES): CN1CCCCC1Cn1cc(C(=O)c2cc([N+](=O)[O-])ccc2I)c2ccccc21 (racemic) [AM-1241, (R,S)-(2-iodo-5-nitrophenyl)-[1-((1-methyl-piperidin-2-yl)methyl-1H-indol-3-yl]-methanone]
- half-life after p.o. relative to i.v. administration ([5]; 25 mg/kg): over 2 fold
- plasma half-life ([5]; 25 mg/kg i.v.): 0.617 h
- half-life after p.o. administration ([5]; 25 mg/kg p.o.): 1.37 h
- oral bioavailability ([5]; 25 mg/kg, plasma AUC ratio p.o./i.v.): ~ 21%
- time by which concentration became undetectable ([6]; brain): ≤ 120 min
- time by which concentration became undetectable ([6]; intestine): ≤ 240 min
- time by which concentration became undetectable ([6]; kidney): ≤ 240 min
- time by which concentration became undetectable ([6]; liver): ≤ 90 min
- detection in brain or liver ([6]; p.o.): not in brain or liver
- time by which concentration became undetectable ([6]; plasma): ≤ 240 min
- time by which concentration became undetectable ([6]; spleen): ≤ 240 min
- bound to plasma protein (plasma proteins): 99%
- bound to albumin (human serum albumin; 0.4% (w/v) aqueous human serum albumin): 56%
- bound to albumin (human serum albumin; 1.0% (w/v) aqueous human serum albumin): 85%
- recovery after incubation (stability) [7]: > 95%
- recovery after incubation (stability) [8]: > 95%
- stability of aqueous samples ([9]; 4°C): stable
- stability of aqueous samples ([9]; room temperature): stable
- site of phase I microsomal metabolism (demethylation and hydroxylation products) [10]: primarily on the piperadine moiety
- metabolites formed compared with rat liver microsomes [11]: the same metabolites
- toxicity (mice; 25 mg/kg orally or i.v., necropsies unremarkable): not toxic
- transient gaping response (animals affected) (mice; 25 mg/kg p.o.): Two out of 29 mice
- gross organ or tissue abnormalities at end-point necropsy (mice; any AM-1241 treatment (25 mg/kg i.v. or p.o.)): No gross organ or tissue abnormalities
- selectivity for CB2 vs. CB1 (CB2 vs. CB1): up to 340 fold
- CB2 affinity (CB2 [12]): low nanomolar
- dose at which maximal analgesic efficacy was reached [13]: 3.3 mg/kg
- daily dose required to reduce experimental colitis [14]: 20 to 40 mg/kg
- doses reported efficacious in various preclinical pain models ([2]; i.v., Beltramo et al. 2006, Ohta et al. 2008): up to 6 mg/kg

Structure (SMILES): O=C(NCC1CCOCC1)c1cnc(Nc2ccc(Cl)cc2Cl)nc1C(F)(F)F [GW842166X]
- half-life after p.o. administration [15]: 3 to 5 h

Structure (SMILES): Cc1c(C(=O)c2cccc3ccccc23)c2cccc3c2n1[C@H](CN1CCOCC1)CO3 [WIN 55,212-2]
- catalepsy [3]: profound catalepsy

Structure (SMILES): CN1CCCCC1Cn1cc(C(=O)c2cc([N+](=O)[O-])ccc2I)c2ccccc21.Cl (stereo not shown) [AM-1241*HCl]
- behavior after administration (mice; 25 mg/kg i.v.): initially somewhat hypoactive, but behaved normally by 90 minutes post-dose
- behavior after administration (mice; 25 mg/kg p.o.): remained alert and apparently unaffected
- transient gaping response (animals affected) (mice; 25 mg/kg p.o.): two of the twenty-nine animals
